Experimental data taken from publication PMC6125551 (Antimicrobial Agents and Chemotherapy, 2018).
Like-named read-outs stand apart in the source and are kept apart here. Values belong to the molecule of their own block, whether it stands above or below them.

Assays:
[1] = Urine pharmacokinetics, single dose, study 2; conditions: both, human, CLR, range
Method: (§1) Study 2 (protocol 002) was a phase 1, randomized, double-blind, placebo-controlled study with three panels of healthy participants that included elderly men (panel L [n = 8]), elderly women (panel M [n = 8]), and adult women (panel N [n = 8]).
(§2) The plasma was mixed with a stabilizer containing morpholineethanesulfonic acid buffer and ethylene glycol before storage at −70°C. […] The assay utilized hydrophilic interaction chromatography (HILIC) and tandem mass spectrometry. Stable isotope-labeled internal standards were used for all three analytes.
(§3) The amount of unchanged drug excreted in urine during a collection interval (Ae) was calculated by a cumulative sum of urine (concentration of unchanged drug × volume) per collection interval. The fraction of the dose excreted in urine (fe) was calculated as Ae/dose.

[2] = Urine pharmacokinetics, single dose, study 1 part I, healthy men; conditions: imipenem-cilastatin 500 mg alone, adult men from study 1
Method: (§4) In each panel, in all periods (except period 4), subjects were randomized to receive a placebo (n = 2) or relebactam (n = 6).
as §2, §3

clinical [3] = conditions: male, human, 500 mg
Method: (§5) Study 1 (protocol 001) was a phase 1, randomized, double-blind, placebo-controlled, rising single- and multiple-dose study conducted at a single center that investigated relebactam in healthy adult men. The study was conducted in four parts, and all doses were administered intravenously (i.v.) in a total volume of 100 ml over 30 min.
as §4, §2
(§6) Pharmacokinetic parameters were determined from plasma and urine concentration-time data by a noncompartmental approach using Phoenix WinNonlin, version 6.3 (Certara LP, Princeton, NJ, USA). The CEOI (concentration at end of infusion) and Tmax (time to maximum concentration) were generated from each analyte's plasma concentration-time data. All AUC values were calculated using the linear trapezoidal method for ascending concentrations and the log trapezoidal method for descending concentrations (calculation method options in WinNonlin). AUC0–∞ was calculated as the sum of AUC0–last and Cest, last/λz, where AUC0–last is the AUC from time 0 to the time of the last quantifiable concentration, Cest, last is the predicted concentration at the time of the last quantifiable concentration, and λz is the apparent terminal rate constant. […] At least three consecutive data points (excluding Cmax) in terminal phase were used for λz calculations. Clearance (CL) was calculated as dose/AUC0–∞.

[4] = for AUC(0-t) / half-life: male, human, in vivo
Method: (§7) Each panel was dosed sequentially, allowing for assessment of safety and tolerability before dose escalation.
as §2, §6

clinical [5] = conditions: male, human, in vivo
Method: as §7, §2, §6

clinical [6] = conditions: male, human, in vivo; remark: listed apart in the source
Method: as §4, §2, §3

[7] = Plasma pharmacokinetics, single dose as 30-min i.v. infusion, study 1 part I, healthy men; conditions: for half-life / AUC(0-inf) / concentration at 30 min / clearance / Vd: male, human, plasma; for AUC(0-inf): AUC0–∞; for concentration at 30 min: CEOI; for clearance: CL; for Vd: Vz;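 for all read-outs here: plasma analyte levels quantified by HILIC with tandem mass spectrometry, parameters derived noncompartmentally in WinNonlin, AUC by linear-up log-down trapezoidal rule, clearance taken as dose over AUC0–∞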
Method: as §5, §4, §2, §6

clinical [8] = conditions: female, human, plasma, intravenous
Method: as §1, §2, §6

[9] = male, human, in vivo, 250 mg
Method: as §4, §2, §3

[10] = Safety and tolerability, single dose, study 1 part I; format: in vivo, human
Excerpt: The safety analysis comprised the all-subjects-as-treated (ASaT) population, which included those participants who received ≥1 dose of investigational drug.

clinical [11] = conditions: male, human, in vivo, unbound CLR
Method: as §7, §2, §3

[12] = assumed for the calculation, no reference given; cited from earlier work
[13] = Plasma pharmacokinetics, single dose, study 2 (elderly men, elderly women, adult women)
Method: as §1, §2, §6

[14] = male, human, in vivo
Method: as §7, §2, §3

[15] = urine and plasma, intravenous, adult participants (men and women)
[16] = urine and plasma, intravenous, elderly participants (men and women)
[17] = intravenous, 25 mg, relebactam 25 mg alone, single dose
[18] = intravenous, 50 mg, relebactam 50 mg alone, single dose
[19] = intravenous, 250 mg, relebactam 250 mg alone, single dose
[20] = intravenous, 500 mg, relebactam 500 mg alone, single dose
[21] = intravenous, 1000 mg, relebactam 1,000 mg alone, single dose
[22] = intravenous, 1150 mg, relebactam 1,150 mg alone, single dose
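Throughout, for CEOI: plasma levels quantified by HILIC with tandem mass spectrometry and isotope-labeled internal standards, parameters derived noncompartmentally in WinNonlin, clearance equal to dose divided by AUC0-∞.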

CL renal ([1]; in vivo, adult participants (men and women)): 157 to 168 mL/min | CL renal ([1]; in vivo, elderly participants (men and women)): 112 to 126 mL/min | fe, least squares mean (95% CI) [2]: 88.5 (82.1, 94.9) % | CL renal ([2]; male, human, in vivo, 500 mg, CLR, mean (95% CI)): 168 mL/min | AUC(0-inf) (clinical [3]; in vivo): 114 ± 13.5 µM·h | Vd (clinical [3]; in vivo): 16.5 ± 2.11 L | concentration at 30 min (clinical [3]; in vivo): 101 ± 16.6 µM | half-life (clinical [3]; in vivo): 0.92 ± 0.051 h | CEOI ([4]; 0 mg relebactam + 500 mg imipenem/cilastatin, panel I, day 1, N 1): 144 µM | CEOI ([4]; 0 mg relebactam + 500 mg imipenem/cilastatin, panel J, day 1): 107 ± 6.53 µM | CEOI ([4]; 0 mg relebactam + 500 mg imipenem/cilastatin, panel K, day 1): 104 ± 10.4 µM | CEOI ([4]; 50 mg relebactam + 500 mg imipenem/cilastatin, panel C, day 1): 106 ± 12.0 µM | CEOI ([4]; 250 mg relebactam + 500 mg imipenem/cilastatin, panel F, day 1): 103 ± 20.0 µM | CEOI ([4]; 500 mg relebactam + 500 mg imipenem/cilastatin, panel H, day 1): 115 ± 21.9 µM | CEOI ([4]; 500 mg relebactam + 500 mg imipenem/cilastatin, panel J, day 1): 98.5 ± 14.6 µM | AUC(0-t) ([4]; AUC0-6, 0 mg relebactam + 500 mg imipenem/cilastatin, panel I, day 1, N 1): 167 µM·h | AUC(0-t) ([4]; AUC0-6, 0 mg relebactam + 500 mg imipenem/cilastatin, panel J, day 1): 110 ± 7.17 µM·h | AUC(0-t) ([4]; AUC0-6, 0 mg relebactam + 500 mg imipenem/cilastatin, panel K, day 1): 126 ± 37.9 µM·h | AUC(0-t) ([4]; AUC0-6, 50 mg relebactam + 500 mg imipenem/cilastatin, panel C, day 1): 127 ± 24.8 µM·h | AUC(0-t) ([4]; AUC0-6, 250 mg relebactam + 500 mg imipenem/cilastatin, panel F, day 1): 110 ± 14.2 µM·h | AUC(0-t) ([4]; AUC0-6, 500 mg relebactam + 500 mg imipenem/cilastatin, panel H, day 1): 136 ± 22.5 µM·h | AUC(0-t) ([4]; AUC0-6, 500 mg relebactam + 500 mg imipenem/cilastatin, panel J, day 1): 106 ± 17.2 µM·h | half-life ([4]; Terminal t1/2, 0 mg relebactam + 500 mg imipenem/cilastatin, panel I, day 1, N 1): 0.962 h | half-life ([4]; Terminal t1/2, 0 mg relebactam + 500 mg imipenem/cilastatin, panel J, day 1): 0.862 ± 0.088 h | half-life ([4]; Terminal t1/2, 0 mg relebactam + 500 mg imipenem/cilastatin, panel K, day 1): 0.908 ± 0.182 h | half-life ([4]; Terminal t1/2, 50 mg relebactam + 500 mg imipenem/cilastatin, panel C, day 1): 1.01 ± 0.142 h | half-life ([4]; Terminal t1/2, 250 mg relebactam + 500 mg imipenem/cilastatin, panel F, day 1): 0.998 ± 0.087 h | half-life ([4]; Terminal t1/2, 500 mg relebactam + 500 mg imipenem/cilastatin, panel H, day 1): 1.01 ± 0.146 h | half-life ([4]; Terminal t1/2, 500 mg relebactam + 500 mg imipenem/cilastatin, panel J, day 1): 0.874 ± 0.117 h
Compound: CC1(C)C[C@@H]1C(=O)N/C(=C\CCCCSC[C@H](N)C(=O)O)C(=O)O [Cilastatin]

CL renal [1, 15]: 98.6 to 108 mL/min | CL renal [1, 16]: 67.6 to 80.9 mL/min | AUC(0-inf) (clinical [3]; plasma, intravenous): 140 ± 16.7 µM·h | clearance (clinical [3]; plasma, intravenous): 201 ± 21.4 mL/min | concentration at 30 min (clinical [3]; plasma, intravenous): 102 ± 17 µM | half-life (clinical [3]; plasma, intravenous): 1.13 ± 0.075 h | AUC(0-t) (clinical [5]): 138 ± 15.3 µM·h | clearance (clinical [5]): 178 ± 16.1 mL/min | CL renal (clinical [6]; 500 mg): 106 ± 20.3 mL/min | CL renal (clinical [6]; 500 mg, CLR, mean (95% CI)): 108 mL/min | half-life ([7]; intravenous, t1/2, observed, compared with relebactam): 1.1 h | AUC(0-inf) (clinical [8]): 132 ± 18.9 µM·h
Compound: C[C@@H](O)[C@H]1C(=O)N2C(C(=O)O)=C(SCCN=CN)C[C@H]12 [Imipenem]

CLR [9]: 144 ± 11.0 mL/min | CL renal [1, 15]: 106 to 158 mL/min | CL renal [1, 16]: 69.6 to 89.2 mL/min | CL renal at 7 days (clinical [11]): 173 mL/min | half-life (clinical [5]; geometric mean terminal t1/2, range): 1.42 to 1.85 h | increase in AUC0–∞ ([13]; adult women vs adult men (historic data from study 1)): 22% | increase in mean plasma exposure ([13]; elderly men vs adult men): 41% | increase in mean plasma exposure ([13]; elderly women vs adult women): 45% | increase in AUC0–∞ ([13]; elderly women vs elderly men): 25% | net active secretion, share of total clearance [14]: approximately 30% | CL renal (clinical [6]; 25 mg, CLR): 177 ± 29.4 mL/min | CL renal (clinical [6]; 50 mg, CLR): 166 ± 21.8 mL/min | CL renal (clinical [6]; 125 mg, CLR): 159 ± 19.6 mL/min | CL renal (clinical [6]; 125 mg, CLR, mean (95% CI)): 158 mL/min | CL renal (clinical [6]; 250 mg, CLR): 153 ± 16.5 mL/min | CL renal (clinical [6]; 500 mg, CLR): 129 ± 20.7 mL/min | CL renal (clinical [6]; 1000 mg, CLR): 127 ± 20.2 mL/min | CL renal (clinical [6]; 1150 mg, CLR): 137 ± 20.6 mL/min | AUC(0-inf) [7, 17]: 7.97 ± 1.67 µM·h | concentration at 30 min [7, 17]: 4.42 ± 1.18 µM | clearance [7, 17]: 155 ± 30.6 mL/min | Vd [7, 17]: 18.3 ± 2.99 L | half-life ([7]; intravenous, 25 mg, t1/2, relebactam 25 mg alone, single dose): 1.39 ± 0.246 h | AUC(0-inf) [7, 18]: 15.6 ± 2.73 µM·h | concentration at 30 min [7, 18]: 9.04 ± 1.88 µM | clearance [7, 18]: 157 ± 23.8 mL/min | Vd [7, 18]: 20.5 ± 3.88 L | concentration at 30 min [7, 19]: 45.4 ± 7.27 µM | clearance [7, 19]: 148 ± 16.4 mL/min | Vd [7, 19]: 20.8 ± 2.77 L | half-life ([7]; intravenous, 250 mg, t1/2, relebactam 250 mg alone, single dose): 1.63 ± 0.129 h | AUC(0-inf) [7, 20]: 180 ± 25.7 µM·h | concentration at 30 min [7, 20]: 101 ± 17.6 µM | clearance [7, 20]: 135 ± 19.9 mL/min | Vd [7, 20]: 19.1 ± 2.64 L | half-life ([7]; intravenous, 500 mg, t1/2, relebactam 500 mg alone, single dose): 1.64 ± 0.141 h | AUC(0-inf) [7, 21]: 373 ± 51.9 µM·h | concentration at 30 min [7, 21]: 209 ± 28.6 µM | clearance [7, 21]: 130 ± 18.3 mL/min | Vd [7, 21]: 20.6 ± 3.46 L | half-life ([7]; intravenous, 1000 mg, t1/2, relebactam 1,000 mg alone, single dose): 1.84 ± 0.281 h | AUC(0-inf) [7, 22]: 396 ± 55.3 µM·h | concentration at 30 min [7, 22]: 208 ± 18.3 µM | clearance [7, 22]: 141 ± 18.8 mL/min | Vd [7, 22]: 21.6 ± 2.69 L | half-life ([7]; intravenous, 1150 mg, t1/2, relebactam 1,150 mg alone, single dose): 1.78 ± 0.225 h | half-life ([7]; intravenous, harmonic mean terminal half-life (t1/2), range, single dose, 25- to 1,150-mg dose range, healthy men): 1.35 to 1.8 h | half-life ([7]; iv, terminal half-life (t1/2), range, single- or multiple-dose i.v. administration over 30 min, independent of dose): 1.35 to 1.85 h | AUC0–∞ ([7]; relebactam 250 mg alone, single dose): 81.8 ± 9.07 µM·h
Compound: O=C(NC1CCNCC1)[C@@H]1CC[C@@H]2CN1C(=O)N2OS(=O)(=O)O [Relebactam]
tolerability ([10]; alone or in combination with imipenem-cilastatin, across the dose ranges studied): well tolerated | participants reporting ≥1 drug-related AEs ([10]; single-dose cohort, part I, n = 16, with or without imipenem-cilastatin): 50% | free fraction [12]: 78%
